Reference: patent US5661167A, “Prolyl endopeptidase inhibitors” (Merrell Pharmaceuticals Inc., priority 1996, dated 1997)

Target: T1, Prolyl endopeptidase (Bos taurus, UniProt Q9XTA2)
T1 construct: Prolyl endopeptidase was partially purified from bovine brain; from tissue; host or cells: bovine brain
T1 sequence (Q9XTA2 1-710): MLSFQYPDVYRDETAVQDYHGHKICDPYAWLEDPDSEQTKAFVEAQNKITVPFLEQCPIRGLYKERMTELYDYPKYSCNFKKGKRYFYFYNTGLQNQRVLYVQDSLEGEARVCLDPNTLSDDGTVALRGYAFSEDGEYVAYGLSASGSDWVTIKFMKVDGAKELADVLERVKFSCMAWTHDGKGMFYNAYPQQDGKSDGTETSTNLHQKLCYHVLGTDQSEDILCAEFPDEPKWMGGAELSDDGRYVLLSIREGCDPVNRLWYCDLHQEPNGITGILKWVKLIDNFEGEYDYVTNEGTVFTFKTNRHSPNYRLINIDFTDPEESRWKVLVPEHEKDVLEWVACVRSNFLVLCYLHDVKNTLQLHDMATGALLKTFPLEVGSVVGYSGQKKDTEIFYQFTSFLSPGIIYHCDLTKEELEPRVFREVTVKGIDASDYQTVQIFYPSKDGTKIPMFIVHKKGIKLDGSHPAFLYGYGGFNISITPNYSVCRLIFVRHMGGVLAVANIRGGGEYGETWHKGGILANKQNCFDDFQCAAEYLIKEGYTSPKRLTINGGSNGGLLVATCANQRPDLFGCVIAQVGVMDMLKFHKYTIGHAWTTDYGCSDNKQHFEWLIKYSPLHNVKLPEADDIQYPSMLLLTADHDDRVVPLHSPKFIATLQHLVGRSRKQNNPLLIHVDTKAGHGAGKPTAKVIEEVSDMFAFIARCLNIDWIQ
Assay: Prolyl endopeptidase enzyme inhibition assay (CBz-Gly-Pro-p-nitroanilide substrate, absorbance at 410 nm)
Type: biochemical
Details: prolyl endopeptidase partially purified from bovine brain, buffer A (50 mM HEPES pH 7.4, 1 mM EDTA, 1 mM DTT), 37° C., [S]=50 μM, KM 11 μM, read-out: ENZYME INHIBITION (enzyme inhibition constant, Ki)
Method: Prolyl endopeptidase was partially purified from bovine brain essentially as described by Yoshimoto et al. (Biochem., 94, 1179 (1983)) except that 50 mM HEPES, pH 7.4, was used instead of Tris buffer. This enzyme preparation is suitable for routine inhibition measurements; however, the enzyme may be further purified as described below. The state of purity of the enzyme is not expected to effect the measured Ki. The pellet from the 50%-80% ammonium sulfate cut is redissolved in the homogenization buffer and desalted by passage through a Pharmacia Mono Q column (0.5×5 cm) at 1 ml/min and the column is washed with 5 ml of buffer A to buffer B (total 20 ml; buffer A=50 mM HEPES, pH 7.4, 1 mM EDTA and 1 mM DTT; buffer B=buffer A+0.5M NaCl). Enzyme activity elutes at about [NaCl]=0.25M.
The enzyme is assayed in buffer A (3.0 ml) at 37° C. containing 20 μM substrate (CBz-Gly-Pro-p-nitroanilide). The increase in absorbance at 410 nm is monitored (410 nm =8.4 mM^-1 cm^-1). Inhibitor stock solutions are made in DMSO. To characterize reversible competitive inhibitors, the initial rates in the presence of three inhibitor concentrations are measured using [S]=50 μM (KM for the substrate is 11 μM). If slow binding is observed, the final equilibrium rates are used.
The Ki for a competitive inhibitor is calculated using known formulas: vo /vi =(1+[I]/Ki, app) and Ki =Ki, app/(1+[S]/KM), where vo is the initial rate in the absence of inhibitor, vi is the initial rate in the presence of inhibitor at the concentration [I], and [S] is the substrate concentration. If "slow binding" is observed (i.e. if the approach to the binding equilibrium is slow), the final steady-state rate rather than the initial rate is taken as vi.
Enzyme inhibition constants were found using the described methods for various compounds of formula 1.

| Ki [nM] | SMILES |
| --- | --- |
| 1.4 | O=C(OCc1ccccc1)N1CCCC1C(=O)N1CCCC1C(=O)C(F)(F)C(F)(F)F (stereo not drawn) [EXAMPLE I, 2-[[2-(2,2,3,3,3-pentafluoro-1-oxopropyl)-1-pyrrolidinyl]carbonyl]-1-pyrrolidinecarboxylic acid, phenylmethyl ester] |
| 1 | O=C(OCc1ccccc1)N1CSCC1C(=O)N1CCCC1C(=O)C(F)(F)C(F)(F)F (stereo not drawn) [EXAMPLE II, 4-[[2-(2,2,3,3,3-pentafluoro-1-oxopropyl)-1-pyrrolidinyl]carbonyl]-3-thiazolidinecarboxylic acid, phenylmethyl ester] |
| 1 | CC(C)(C)OC(=O)N1CSCC1C(=O)N1CSCC1C(=O)C(F)(F)C(F)(F)F (stereo not drawn) [EXAMPLE IV, 4-[[4-(2,2,3,3,3-pentafluoro-1-oxopropyl)-3-thiazolidinyl]carbonyl]-3-thiazolidinecarboxylic acid, 1,1-dimethylethyl ester] |
